This data set can be described thus: in vitro. Conditions: rat, gh3-tre-luc cells.

Where a name gives a salt, the structure may show the parent alone.

A word on the CC50: it is the concentration at which the toxic effect on the cells reaches its halfway point. Read a high CC50 as lower toxicity to the cells.

Where the note is “AC50 (uM) modified / 1000”, `CC(=O)Oc1ccc(C)cc1` [4-Tolyl acetate] came in with a CC50 at 24 h of more than 90 µM.
As to `COC(=O)c1ccc(C(=O)O)cc1` [1,4-Benzenedicarboxylic acid, monomethyl ester], the CC50 at 24 h (AC50 (uM) modified / 1000) is more than 90 µM.
Compound `C(=C\c1ccncc1)/c1ccccc1` [4-Styrylpyridine] returned a CC50 at 24 h (AC50 (uM) modified / 1000) of more than 50 µM.
Where the note is “AC50 (uM) modified / 1000”, `O[C@@H](CNC[C@H](O)[C@H]1CCc2cc(F)ccc2O1)[C@@H]1CCc2cc(F)ccc2O1` (racemic) [rac Nebivolol hydrochloride] came in with a CC50 at 24 h of 7.99 µM.
The compound `CN(C1CCCCC1)C1CCCCC1` [N-Cyclohexyl-N-methylcyclohexanamine] came in with a CC50 at 24 h (AC50 (uM) modified / 1000) of more than 90 µM.
On to `CCCCCCCCC=CCCCCCCCC1=NCCN1CCO` [2-(8-Heptadecenyl)-2-imidazoline-1-ethanol], for which, under “AC50 (uM) modified / 1000”, the CC50 at 24 h came out at 23.2 µM.
The same measure, in the same setting: the same measure for `CCCCN(CCO)CCCC` [2-(Dibutylamino)ethanol]: more than 90 µM; for `CCOC(=O)c1c(C)n(C)c2ccc(O)cc12` [Mecarbinate]: more than 50 µM.
The compound `CC(C)(C)C(=O)OCOC(=O)[C@@H]1N2C(=O)C[C@H]2S(=O)(=O)C1(C)C` [Pivoxil Sulbactam] yielded a CC50 at 24 h (AC50 (uM) modified / 1000) of more than 50 µM.
On the same count and under the same terms, the same measure for `C/C=C1\C(=O)C[C@H]2[C@@H]3CCC4=CC(=O)CC[C@]4(C)[C@H]3CC[C@]12C` [Guggulsterone Z]: more than 50 µM; for `Cc1ccccc1/N=N/c1ccc(/N=N/c2c(O)ccc3ccccc23)c(C)c1` [C.I. Solvent Red 24]: more than 50 µM.
For the setting “AC50 (uM) modified / 1000”, `O=C(O)c1cc(O)c2c(c1)C(=O)c1cccc(O)c1C2=O` [Rhein] had a CC50 at 24 h of more than 90 µM.
The same measure, in the same setting: the same measure for `c1ccc2cnncc2c1` [Phthalazine]: more than 90 µM; for `CCO[Si](CCCNC(N)=O)(OCC)OCC` [1-[3-(Triethoxysilyl)propyl]urea]: more than 90 µM.
Where the note is “AC50 (uM) modified / 1000”, `CN(C)[C@@H]1C(O)=C(C(N)=O)C(=O)[C@@]2(O)C(O)=C3C(=O)c4c(O)cccc4[C@@](C)(O)[C@H]3C[C@@H]12` [Tetracycline] came in with a CC50 at 24 h of more than 90 µM.
Same read-out and setting: the figure for `C/N=C(\NC)NCc1ccccc1` [Bethanidine sulfate (2:1)] is more than 50 µM.
Still for that read-out and setting: the same measure for `O=C(N[C@H]1CN2CCC1CC2)c1cc2ccoc2cn1` [PHA-00543613]: more than 90 µM.
On the same count and under the same terms, the figure for `O=C(O)COc1cc(Cl)c(Cl)cc1Cl` [2,4,5-Trichlorophenoxyacetic acid] is more than 90 µM; for `CCOc1cc(C=O)ccc1O` [3-Ethoxy-4-hydroxybenzaldehyde] it is more than 50 µM.
Where the note is “AC50 (uM) modified / 1000”, `COc1cc(OC)c2ccc(=O)oc2c1` [5,7-Dimethoxy-2H-chromen-2-one] displayed a CC50 at 24 h of more than 90 µM.
Same read-out and setting: the figure for `CNCCC(Oc1ccccc1OC)c1ccccc1` (centres unmarked) [Nisoxetine] is 38.3 µM; for `CCOc1ccccc1C(N)=O` [2-Ethoxybenzamide] it is more than 90 µM.
With `ClC1=C(Cl)[C@]2(Cl)[C@@H]3[C@@H](Cl)[C@H]4O[C@H]4[C@@H]3[C@@]1(Cl)C2(Cl)Cl` [Heptachlor epoxide], for the setting “AC50 (uM) modified / 1000, Tox21_110001=Tox21_300621, viability, 1 nM T3 present, 24 h”, the CC50 at 24 h was 48.8 µM.
For `CC(C)CC(C)CC(O)CC(C)C` (centres unmarked) [2,6,8-Trimethyl-4-nonanol], for the setting “AC50 (uM) modified / 1000”, the CC50 at 24 h is more than 90 µM.
`COC(=O)C(C)(C)C` [Methyl pivalate] displayed a cytotoxic concentration (CC50) at 24 h (AC50 (uM) modified / 1000) of more than 90 µM.
On the same count and under the same terms, the figure for `NC(=O)CC[C@@H]1NC(=O)[C@H](Cc2ccccc2)NC(=O)[C@H](Cc2ccc(O)cc2)NC(=O)[C@@H](N)CSSC[C@@H](C(=O)N2CCC[C@H]2C(=O)N[C@@H](CCCN=C(N)N)C(=O)NCC(N)=O)NC(=O)[C@H](CC(N)=O)NC1=O` [Argipressin acetate] is more than 50 µM; for `Cc1[nH]c(=O)c(C#N)cc1-c1ccncc1` [Milrinone] it is more than 90 µM.
The same measure, in the same setting: the figure for `O=C1C=CC(=O)C=C1` [1,4-Benzoquinone] is more than 90 µM; for `COc1ccc(C)cc1N` [2-Methoxy-5-methylaniline] it is more than 90 µM; for `O=c1cc(-c2ccccc2)oc2ccc3ccccc3c12` [5,6-Benzoflavone] it is more than 90 µM.
The compound `CC(=O)Nc1ccc(S(=O)(=O)Nc2cc(C)on2)cc1` [N-Acetyl sulfamethoxazole] displayed a 50% cytotoxic concentration (CC50) at 24 h (AC50 (uM) modified / 1000) of more than 50 µM.
Consider `CC(C)CC=O` [3-Methylbutanal], for which, under “AC50 (uM) modified / 1000”, the half-maximal cytotoxic concentration (CC50) at 24 h is more than 90 µM.
In turn, `CCCCCCCCCCCC[N+](C)(C)Cc1ccccc1` [Benzyldimethyldodecylammonium chloride] registered a CC50 at 24 h (AC50 (uM) modified / 1000) of 10.6 µM.
In the case of `Nc1ccc(Oc2ccc(N)c(N)c2)cc1` [3,4,4'-Triaminodiphenyl ether], under “AC50 (uM) modified / 1000”, half-maximal cytotoxicity (CC50 at 24 h) was put at 75.2 µM.
`C1CCC(NC2CCCCC2)CC1` [Dicyclohexylamine]: the CC50 at 24 h is more than 50 µM (AC50 (uM) modified / 1000, Tox21_110001=Tox21_111044, viability, 1 nM T3 present, 24 h) and more than 90 µM (AC50 (uM) modified / 1000, Tox21_110001=Tox21_201771, viability, 1 nM T3 present, 24 h).
In the case of `O=S(=O)(c1ccc(Cl)cc1)c1ccc(Cl)cc1` [4,4'-Dichlorodiphenyl sulfone], the CC50 at 24 h (AC50 (uM) modified / 1000) is more than 90 µM.
The same measure, in the same setting: the same measure for `CC(c1cc2ccccc2s1)N(O)C(N)=O` (centres unmarked) [Zileuton]: more than 90 µM; for `NC(=O)c1ccncc1` [Isonicotinamide]: more than 100 µM; for `O=C(Oc1ccccc1)Oc1ccccc1` [Diphenylcarbonate]: more than 90 µM.
As to `C=C[Si](OC)(OC)OC` [Vinyltrimethoxysilane], the CC50 at 24 h (AC50 (uM) modified / 1000) is more than 90 µM.
Same read-out and setting: the same measure for `N#CC(C#N)=C(C#N)C#N` [Tetracyanoethylene]: more than 100 µM.
Take `CCOP(=S)(OCC)SC(CCl)N1C(=O)c2ccccc2C1=O` (centres unmarked) [Dialifor]: the CC50 at 24 h (AC50 (uM) modified / 1000, Tox21_110001=Tox21_300794, viability, 1 nM T3 present, 24 h) is more than 90 µM.
For the setting “AC50 (uM) modified / 1000”, `CO[Si](CCCS)(OC)OC` [3-Mercaptopropyltrimethoxysilane] had a CC50 at 24 h of more than 90 µM.
`COCC(C)N(C(=O)CCl)c1c(C)csc1C` (centres unmarked) [Dimethenamid] registered a CC50 at 24 h (AC50 (uM) modified / 1000) of more than 90 µM.
Still for that read-out and setting: the figure for `CCCCNC(=O)NS(=O)(=O)c1ccc(N)cc1` [Carbutamide] is more than 90 µM.
For the compound `ClCCCCCCCl` [1,6-Dichlorohexane], the CC50 at 24 h (AC50 (uM) modified / 1000, Tox21_110001=Tox21_302121, viability, 1 nM T3 present, 24 h) was more than 90 µM.
On to `CC[C@@]1(c2ccccc2)NC(=O)N(C)C1=O` [(S)-Mephenytoin], for which the CC50 at 24 h (AC50 (uM) modified / 1000) is more than 50 µM.
Same read-out and setting: the same measure for `CC1=C2[C@H](/C=C(\C)C(=O)O)CC[C@@H](C)[C@H]2CC1` [Valerenic acid]: more than 100 µM; for `COc1cc(C)c(Cc2cnc(N)nc2N)cc1OC` [Ormetoprim]: more than 50 µM.
Take `O=C1c2ccccc2C(=O)C1c1ccc(Br)cc1` [Bromindione]: the CC50 at 24 h (AC50 (uM) modified / 1000) is more than 50 µM.
As to `C[C@H](Cc1ccc(OCC(=O)O)cc1)NC[C@H](O)c1csc(C(F)(F)F)n1` [CP-114271], the CC50 at 24 h (AC50 (uM) modified / 1000) was more than 90 µM.
The same measure, in the same setting: the same measure for `C[C@H](CS)C(=O)N1CCC[C@H]1C(=O)O` [Captopril]: more than 50 µM; for `CC1=NN(c2ccc(S(=O)(=O)O)cc2)C(=O)C1N=Nc1ccccc1` (centres unmarked) [Acid Yellow 11]: 69.4 µM.
On the same count and under the same terms, the figure for `Cc1ccc(S(=O)(=O)N[C@@H](CCCCN)C(=O)CCl)cc1` [N-alpha-p-Tosyl-L-lysine chloromethyl ketone hydrochloride] is 15 µM; for `C=CC(=O)OCC(CO)(COCC(COC(=O)C=C)(COC(=O)C=C)COC(=O)C=C)COC(=O)C=C` [Dipentaerythritol pentaacrylate] it is 1.74 µM; for `CCC1(C)NC(=O)NC1=O` (centres unmarked) [5-Ethyl-5-methylhydantoin] it is more than 90 µM.
Where the note is “AC50 (uM) modified / 1000, Tox21_110001=Tox21_200953, viability, 1 nM T3 present, 24 h”, `O=[N+]([O-])c1cccc2c([N+](=O)[O-])cccc12` [1,5-Dinitronaphthalene] came in with a CC50 at 24 h of more than 90 µM.
As for `CN1C(=O)C[C@@H](C(=O)N[C@@H](Cc2c[nH]cn2)C(=O)N2CCC[C@H]2C(N)=O)NC1=O` [Taltirelin], the CC50 at 24 h (AC50 (uM) modified / 1000) is more than 50 µM.
As for `CCCCCCCCCCCC(C)=O` [2-Tridecanone], the CC50 at 24 h (AC50 (uM) modified / 1000) is more than 90 µM.
`OCC(CO)(CBr)CBr` [Pentaerythritol dibromide]: the CC50 at 24 h (AC50 (uM) modified / 1000) is more than 90 µM.
Still for that read-out and setting: the same measure for `CCCCCCCCCCCCCC=O` [Tetradecanal]: more than 5 µM; for `CCCCCCCCSCC` [Ethyl octyl sulfide]: more than 90 µM.
Same read-out and setting: the same measure for `Cc1ccc(O)c(C(=O)c2ccccc2)c1` [2-Hydroxy-5-methylbenzophenone]: more than 90 µM.
Compound `Nc1c(CC(=O)O)cccc1C(=O)c1ccc(Br)cc1` [Bromfenac sodium sesquihydrate] registered a CC50 at 24 h (AC50 (uM) modified / 1000) of more than 50 µM.
As for `COC(C)(C)CC(C)=O` [4-Methoxy-4-methyl-2-pentanone], the CC50 at 24 h (AC50 (uM) modified / 1000) is more than 90 µM.
For the setting “AC50 (uM) modified / 1000”, `O=C1OC(=O)c2cc([N+](=O)[O-])ccc21` [4-Nitrophthalic anhydride] gave a CC50 at 24 h of more than 90 µM.
Compound `CC(Br)C(=O)O` (centres unmarked) [2-Bromopropionic acid] came in with a 50% cytotoxic concentration (CC50) at 24 h (AC50 (uM) modified / 1000, Tox21_110001=Tox21_201417, viability, 1 nM T3 present, 24 h) of more than 90 µM.
Take `O=C(O)c1cc(=O)c2ccccc2o1` [Chromocarb]: under “AC50 (uM) modified / 1000”, the CC50 at 24 h is more than 50 µM.
Under “AC50 (uM) modified / 1000”, `CCCCOC(CC)OC(C)COC(O)CC` (centres unmarked) [Tripropylene glycol butyl ether] registered a CC50 at 24 h of more than 90 µM.
The compound `COc1cc2c(cc1OC)[C@@]13CCN4CC5=CCO[C@H]6CC(=O)N2[C@H]1[C@H]6[C@H]5C[C@H]43` [Brucine] registered a CC50 at 24 h (AC50 (uM) modified / 1000, Tox21_110001=Tox21_111349, viability, 1 nM T3 present, 24 h) of more than 50 µM and a CC50 at 24 h (AC50 (uM) modified / 1000, Tox21_110001=Tox21_302174, viability, 1 nM T3 present, 24 h) of more than 90 µM.
Turning to `CC(=O)OCC(=O)[C@H]1CC[C@H]2[C@@H]3CCC4=CC(=O)CC[C@]4(C)[C@H]3CC[C@]12C` [Deoxycorticosterone acetate], the CC50 at 24 h (AC50 (uM) modified / 1000) is more than 50 µM.
On the same count and under the same terms, the same measure for `COc1ccccc1N` [2-Methoxyaniline hydrochloride]: more than 90 µM.
